Test [1] addresses T1, Human mPGES-1 (Homo sapiens, UniProt O14684).
T1 construct: host or cells: 293E cells (transient expression; microsomes prepared from cell pellets)
T1 sequence (O14684 1-152): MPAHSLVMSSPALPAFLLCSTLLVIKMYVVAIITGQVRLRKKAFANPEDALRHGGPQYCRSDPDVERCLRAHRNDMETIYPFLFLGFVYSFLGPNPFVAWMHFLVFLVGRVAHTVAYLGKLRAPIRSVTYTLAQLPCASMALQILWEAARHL
The test can be described thus: Human mPGES-1 Enzyme Inhibition Assay. Type of test: biochemical. As to conditions: microsomes from 293E cells, 1.67 μM PGH2, PGE2 by LC/MS; ±0.00064, n=17. The procedure:
Human mPGES-1 Enzyme Inhibition Assay
Human mPGES-1 (Invitrogen™ (Cat#97002RG, clone ID 6374722)) is subcloned into pcDNA3.1 and transiently expressed in 293E cells. Microsomes are prepared from cell pellets based on published methods (Oullet et al., Purification and characterization of recombinant microsomal prostaglandin E synthase-1, Protein Expression and Purification, 26 pp 489-495 (2002); and Thoren et al., Human Microsomal Prostanglandin E Synthase-1, J. Biol Chem. 278(25) pp 22199-22209 (2003)). Briefly, pellets are brought up in homogenization buffer (15 mM Tris-HCl, pH 8.0; 0.25 M sucrose; 0.1 mM EDTA; 1 mM glutathione) and sonicated 5×30 seconds on ice. Homogenate is centrifuged at 5,000×g for 10 minutes at 4° C. The supernatant fraction is decanted and loaded into Beckman Quick-Seal® tubes and centrifuged at 150,000×g. for 90 minutes at 4° C. The supernatant fraction is discarded by decantation and the pellets are re-suspended in assay buffer (10 mM sodium phosphate, pH 7.0; 10% glycerol; 2.5 mM glutathione; Complete Protease Inhibitor Cocktail (Roche)). Protein concentration is determined using the Pierce Coomassie Plus™ reagent.
For the enzyme assay, the microsomes are diluted into assay buffer and 14 μL/well of the resulting solution is added to 384 well assay plates. […]

Test [2] deals with PGE2 formation in human whole blood. Briefly: Human Whole Blood Assay (LPS induced PGE2). Format: cell-based. As to conditions: 100 μg/mL LPS, 20-24 hours, LC/MS/MS, n=11, read-out: IC50 for inhibition of PGE2 formation in human whole blood. The procedure:
Blood is collected from normal volunteer donors into sodium heparin VACUTAINER tubes. Donors are selected, in part, on their confirmation that they have not taken NSAIDs, aspirin, Celebrex®, or glucocorticoids within two weeks of the donation. All tubes/donor are pooled into 250 mL Corning conical centrifuge tubes and 436.5 μL/well is distributed into deep well polypropylene plates. Compounds are diluted in DMSO to 100× final and 4.5 μL/well in duplicate or triplicate is added to give 7 point curves. […] One hundred microliters is quantitatively transferred to Costar cluster tubes blocks and 400 μL/well of the MeOH stop reagent and internal standards, d4-PGE2, d4-PGF2α, and d4-TXA2β are added. […]
Solid phase extraction is performed using Waters HLB 30 mg/bed 96 well plates on a vacuum manifold: Step 1, the matrix is washed with MeOH (1 mL), followed by 0.1% formic acid in water (1 mL); Step 2, 400 μL sample is applied along with 0.1% formic acid in water (900 μL) and allowed to bind for 5 minutes; Step 3, the matrix is washed with 0.1% formic acid in water (600 μL), followed by 80/20 water/MeOH (600 μL); Step 4, the products are eluted with 2-500 μL volumes of EtOAc; Step 5 the samples are dried under nitrogen and reconstituted in 75/25 water/acetonitrile with 0.1% formic acid (50 μL). The products are analyzed by LC/MS/MS.

For test [3], the system named is PGE2 formation in human epithelial lung carcinoma cell line A549. Briefly: Cell Based Assay for Measuring Eicosanoid Selectivity (rhIL-1β induced PGE2 in A549 cells). As to conditions: 0.1 ng/mL rhIL-1β, approximately 18 hours, EIA, ±0.00301, n=2, read-out: IC50 for inhibition of PGE2 formation. The procedure: Cell Based Assay for Measuring Eicosanoid Selectivity
Human epithelial lung carcinoma cell line A549 is obtained from ATCC (CCL-185) and maintained in Kaighn's F12 cell culture medium+10% fetal bovine serum (FBS) (plating medium) under standard 5% CO2 humidified atmosphere at 37° C. The cells are passaged at 1:3 twice per week.
For the assays, cells are released from flasks by washing once with PBS, then once with Trypsin/EDTA. After 3-5 minutes at 37° C., the cells are suspended in plating medium and centrifuged at 2,000 rpm, 25° C., for 5 minutes. The supernatant is aspirated and the cell pellet is resuspended in F12K plating medium. The cell number is determined by counting an aliquot of cells which has been diluted in PBS and Trypan blue on a hemocytometer. Cells are plated at 40,000/well in 96 well Falcon plates 24 hours prior to treatment. Compounds are diluted in DMSO to 100× of the final concentration in Screen Mates tubes. The medium is removed from the cells and fresh medium (90 μL/well) is added to the cells. The compounds are added at 1 μL/well, n=2, to give seven concentrations each. Cells are pretreated with compounds for 30 minutes at 37° C., 5% CO2. […] After approximately 90-120 minutes at room temperature on an orbital shaker at 100 rpm, the plates are read at A412 on a plate reader. […]

Broadly, the IC50 is the concentration at which inhibition is half-maximal. Consider `Cc1cccc2ccc(N3CC[C@H](C(=O)N[C@H]4CCO[C@H](CO)C4)C(C)(C)C3)nc12` [Example 1, (S)-N-((2S,4S)-2-(Hydroxymethyl)tetrahydro-2H-pyran-4-yl)-3,3-dimethyl-1-(8-methylquinolin-2-yl)piperidine-4-carboxamide], for which the IC50 in test [1] amounted to 1.93 nM; in test [2], 2.05 ± 0.82 nM; in test [3] it was 4.71 nM.

(Values after patent US9962375B2, “Methyl-piperidine compounds useful for inhibiting microsomal prostaglandin E2 synthase-1” (Eli Lilly and Company, priority 2014, dated 2018).)
